Experimental data reported in BigSolDB 2.1.

CCOC(=O)c1ccc(O)cc1
solubility (mole fraction)
Details	278.15 K	283.15 K	288.15 K	293.15 K	298.15 K	303.15 K	308.15 K	313.15 K	318.15 K
in acetonitrile	0.0703	0.0822	0.0995	0.121	0.148	0.178	0.214	0.252	0.293
in water	2.62e-05	3.64e-05	5.25e-05	7.52e-05	9.7e-05	0.000119	0.000145	0.000169	0.000192
